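Cells were grown in 96-well plates and exposed to each compound for 48 hours at five concentrations; endpoints were interpolated linearly between bracketing concentrations, or set to the highest concentration if not reached. GI50 marks 50% less growth.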 Calls of active or inactive are those of the source. No stated cut-off is given here; in the data, active = GI50 up to about 1.1 µM and inactive = higher.
Assays:
Experiment in all cases: NCI-60 cell line screen, 48 h
786-0 = system: 786-0
A498 = system: A498
A549 = system: A549
ACHN = system: ACHN
BT-549 = system: BT-549
CAKI-1 = system: CAKI-1
CCRF-CEM = system: CCRF-CEM
COLO 205 = system: COLO 205
DU-145 = system: DU-145
EKVX = system: EKVX
HCC 2998 = system: HCC 2998
HCT-116 = system: HCT-116
HCT-15 = system: HCT-15
HL-60 = system: HL-60
HOP-62 = system: HOP-62
HOP-92 = system: HOP-92
HT-29 = system: HT-29
Hs-578T = system: Hs-578T
IGROV-1 = system: IGROV-1
K562 = system: K562
KM12 = system: KM12
LOX IMVI = system: LOX IMVI
M14 = system: M14
MCF7 = system: MCF7
MDA-N = system: MDA-N
MOLT-4 = system: MOLT-4
Malme-3M = system: Malme-3M
NCI-H226 = system: NCI-H226
NCI-H23 = system: NCI-H23
NCI-H460 = system: NCI-H460
NCI-H522 = system: NCI-H522
NCI/ADR-RES = system: NCI/ADR-RES
OVCAR-3 = system: OVCAR-3
OVCAR-4 = system: OVCAR-4
OVCAR-5 = system: OVCAR-5
OVCAR-8 = system: OVCAR-8
PC-3 = system: PC-3
RPMI-8226 = system: RPMI-8226
RXF 393 = system: RXF 393
SF-268 = system: SF-268
SF-295 = system: SF-295
SF-539 = system: SF-539
SK-MEL-28 = system: SK-MEL-28
SK-MEL-2 = system: SK-MEL-2
SK-MEL-5 = system: SK-MEL-5
SK-OV-3 = system: SK-OV-3
SN12C = system: SN12C
SNB-19 = system: SNB-19
SNB-75 = system: SNB-75
SR = system: SR
SW-620 = system: SW-620
T47D = system: T47D
TK-10 = system: TK-10
U-251 = system: U-251
UACC-257 = system: UACC-257
UO-31 = system: UO-31
MDA-MB-231 = system: MDA-MB-231
MDA-MB-435 = system: MDA-MB-435
UACC-62 = system: UACC-62

Cc1cc(S(=O)(=O)Nc2nc(N)nc(N3N=CCC3C)n2)c(S)cc1Cl (configuration not stated)
GI50 (786-0): > 10 µM (inactive) | GI50 (A498): > 10 µM (inactive) | GI50 (A549): > 10 µM (inactive) | GI50 (ACHN): > 10 µM (inactive) | GI50 (BT-549): > 10 µM (inactive) | GI50 (CAKI-1): > 10 µM (inactive) | GI50 (CCRF-CEM): > 10 µM (inactive) | GI50 (COLO 205): > 10 µM (inactive) | GI50 (DU-145): > 10 µM (inactive) | GI50 (EKVX): > 10 µM (inactive) | GI50 (HCC 2998): > 10 µM (inactive) | GI50 (HCT-116): > 10 µM (inactive) | GI50 (HCT-15): > 10 µM | GI50 (HL-60): > 10 µM (inactive) | GI50 (HOP-62): > 10 µM (inactive) | GI50 (HOP-92): > 10 µM (inactive) | GI50 (HT-29): > 10 µM (inactive) | GI50 (Hs-578T): > 10 µM (inactive) | GI50 (IGROV-1): > 10 µM (inactive) | GI50 (K562): > 10 µM (inactive) | GI50 (KM12): > 10 µM (inactive) | GI50 (LOX IMVI): > 10 µM (inactive) | GI50 (M14): > 10 µM (inactive) | GI50 (MCF7): > 10 µM (inactive) | GI50 (MDA-N): > 10 µM (inactive) | GI50 (MOLT-4): > 10 µM (inactive) | GI50 (Malme-3M): > 10 µM (inactive) | GI50 (NCI-H226): > 10 µM (inactive) | GI50 (NCI-H23): > 10 µM (inactive) | GI50 (NCI-H460): > 10 µM (inactive) | GI50 (NCI-H522): > 10 µM (inactive) | GI50 (NCI/ADR-RES): > 10 µM (inactive) | GI50 (OVCAR-3): > 10 µM (inactive) | GI50 (OVCAR-4): > 10 µM (inactive) | GI50 (OVCAR-5): > 10 µM (inactive) | GI50 (OVCAR-8): > 10 µM (inactive) | GI50 (PC-3): > 10 µM (inactive) | GI50 (RPMI-8226): > 10 µM (inactive) | GI50 (RXF 393): > 10 µM (inactive) | GI50 (SF-268): > 10 µM (inactive) | GI50 (SF-295): > 10 µM (inactive) | GI50 (SF-539): > 10 µM (inactive) | GI50 (SK-MEL-28): > 10 µM (inactive) | GI50 (SK-MEL-2): > 10 µM (inactive) | GI50 (SK-MEL-5): > 10 µM (inactive) | GI50 (SK-OV-3): > 10 µM (inactive) | GI50 (SN12C): > 10 µM (inactive) | GI50 (SNB-19): > 10 µM (inactive) | GI50 (SNB-75): > 10 µM (inactive) | GI50 (SR): > 10 µM (inactive) | GI50 (SW-620): > 10 µM (inactive) | GI50 (T47D): > 10 µM (inactive) | GI50 (TK-10): > 10 µM (inactive) | GI50 (U-251): > 10 µM (inactive) | GI50 (UACC-257): > 10 µM (inactive) | GI50 (UO-31): > 10 µM (inactive)

CCC1C(c2ccccc2O)c2cc3c(cc2OC1N1CCOCC1)OCO3 (configuration not stated)
GI50 (786-0): 21.1 µM (inactive) | GI50 (A498): 14.3 µM (inactive) | GI50 (A549): 14.4 µM (inactive) | GI50 (ACHN): 13.3 µM (inactive) | GI50 (BT-549): 15.6 µM (inactive) | GI50 (CAKI-1): 16.6 µM (inactive) | GI50 (CCRF-CEM): 13.9 µM (inactive) | GI50 (COLO 205): 15.4 µM (inactive) | GI50 (DU-145): 14.8 µM (inactive) | GI50 (EKVX): 12.8 µM (inactive) | GI50 (HCC 2998): 17.3 µM (inactive) | GI50 (HCT-116): 13.6 µM (inactive) | GI50 (HCT-15): 9.4 µM | GI50 (HL-60): 18.2 µM (inactive) | GI50 (HOP-62): 15.4 µM (inactive) | GI50 (HOP-92): 13 µM (inactive) | GI50 (HT-29): 13.6 µM (inactive) | GI50 (Hs-578T): 15.9 µM (inactive) | GI50 (IGROV-1): 15.8 µM (inactive) | GI50 (K562): 11.5 µM (inactive) | GI50 (KM12): 13 µM (inactive) | GI50 (LOX IMVI): 14.9 µM (inactive) | GI50 (M14): 15.1 µM (inactive) | GI50 (MCF7): 14.4 µM (inactive) | GI50 (MDA-MB-231): 16.8 µM (inactive) | GI50 (MDA-MB-435): 15.6 µM (inactive) | GI50 (MDA-N): 12.8 µM (inactive) | GI50 (MOLT-4): 6.44 µM (inactive) | GI50 (Malme-3M): 13 µM (inactive) | GI50 (NCI-H226): 15.7 µM (inactive) | GI50 (NCI-H23): 18.2 µM (inactive) | GI50 (NCI-H460): 14.3 µM (inactive) | GI50 (NCI-H522): 12.9 µM (inactive) | GI50 (OVCAR-3): 12.5 µM (inactive) | GI50 (OVCAR-5): 14.9 µM (inactive) | GI50 (OVCAR-8): 20.8 µM (inactive) | GI50 (PC-3): 12.5 µM (inactive) | GI50 (RPMI-8226): 13.9 µM (inactive) | GI50 (RXF 393): 13.3 µM (inactive) | GI50 (SF-268): 14.7 µM (inactive) | GI50 (SF-295): 14.9 µM (inactive) | GI50 (SF-539): 16.3 µM (inactive) | GI50 (SK-MEL-28): 17.6 µM (inactive) | GI50 (SK-MEL-2): 15.5 µM (inactive) | GI50 (SK-MEL-5): 16.7 µM (inactive) | GI50 (SK-OV-3): 22.2 µM (inactive) | GI50 (SN12C): 15.7 µM (inactive) | GI50 (SNB-19): 15.3 µM (inactive) | GI50 (SNB-75): 8.53 µM (inactive) | GI50 (SR): 14.5 µM (inactive) | GI50 (SW-620): 15.9 µM (inactive) | GI50 (T47D): 13.2 µM (inactive) | GI50 (TK-10): 13.9 µM (inactive) | GI50 (U-251): 13.6 µM (inactive) | GI50 (UACC-257): 16 µM (inactive) | GI50 (UACC-62): 13.1 µM (inactive) | GI50 (UO-31): 13.9 µM (inactive)

CC1C2CC(CC2(C)O)C1(C)C (configuration not stated)
GI50 (786-0): > 100 µM (inactive) | GI50 (A498): > 100 µM (inactive) | GI50 (A549): > 100 µM (inactive) | GI50 (ACHN): > 100 µM (inactive) | GI50 (BT-549): > 100 µM (inactive) | GI50 (CAKI-1): > 100 µM (inactive) | GI50 (CCRF-CEM): > 100 µM (inactive) | GI50 (COLO 205): > 100 µM (inactive) | GI50 (DU-145): > 100 µM (inactive) | GI50 (EKVX): > 100 µM (inactive) | GI50 (HCC 2998): > 100 µM (inactive) | GI50 (HCT-116): > 100 µM (inactive) | GI50 (HL-60): > 100 µM (inactive) | GI50 (HOP-62): > 100 µM (inactive) | GI50 (HOP-92): > 100 µM (inactive) | GI50 (HT-29): > 100 µM (inactive) | GI50 (Hs-578T): > 100 µM (inactive) | GI50 (IGROV-1): > 100 µM (inactive) | GI50 (K562): > 100 µM (inactive) | GI50 (KM12): > 100 µM (inactive) | GI50 (M14): > 100 µM (inactive) | GI50 (MCF7): > 100 µM (inactive) | GI50 (MDA-MB-231): > 100 µM (inactive) | GI50 (MDA-MB-435): > 10 µM (inactive) | GI50 (MDA-N): > 100 µM (inactive) | GI50 (MOLT-4): > 100 µM (inactive) | GI50 (Malme-3M): > 100 µM (inactive) | GI50 (NCI-H226): > 100 µM (inactive) | GI50 (NCI-H23): > 100 µM (inactive) | GI50 (NCI-H460): > 100 µM (inactive) | GI50 (NCI-H522): > 100 µM (inactive) | GI50 (OVCAR-3): > 100 µM (inactive) | GI50 (OVCAR-4): > 100 µM (inactive) | GI50 (OVCAR-5): > 100 µM (inactive) | GI50 (OVCAR-8): > 100 µM (inactive) | GI50 (PC-3): > 100 µM (inactive) | GI50 (RXF 393): > 100 µM (inactive) | GI50 (SF-268): > 100 µM (inactive) | GI50 (SF-295): > 100 µM (inactive) | GI50 (SF-539): > 100 µM (inactive) | GI50 (SK-MEL-28): > 100 µM (inactive) | GI50 (SK-MEL-5): > 100 µM (inactive) | GI50 (SK-OV-3): > 100 µM (inactive) | GI50 (SN12C): > 100 µM (inactive) | GI50 (SNB-19): > 100 µM (inactive) | GI50 (SNB-75): > 100 µM (inactive) | GI50 (SR): > 100 µM (inactive) | GI50 (SW-620): > 100 µM (inactive) | GI50 (T47D): > 100 µM (inactive) | GI50 (TK-10): > 100 µM (inactive) | GI50 (U-251): > 100 µM (inactive) | GI50 (UACC-257): > 100 µM (inactive) | GI50 (UACC-62): > 100 µM (inactive) | GI50 (UO-31): > 100 µM (inactive)

Source: ChEMBL document CHEMBL1201862, “PubChem BioAssay data set” (2004)
